One block for each molecule: values may come before it.
Experiments:
Kupffer cells [1] = assay: Cytokine secretion in Kupffer cells following LPS-induced inflammation (Bio-Plex); type: cell-based, mouse; conditions: LPS 50 ng/mL; for secretion of IL-1β / secretion of IL-6: 1 μM
Excerpt: […] Cells treated with DMSO were used as control at the final concentration of 0.5% in medium. All the wells were normalized with DMSO at 0.5% final concentration. The supernatant was collected to measure cytokine secretion using a Bio-Plex Pro mouse cytokine 23-plex assay system (cat #M60009RDPD) using a Bio-Plex Instrument. The cells were washed once with PBS, and then lysed to extract total RNA for performing RT-PCR to evaluate ACMSD modulation of IL-10, SIRT1, and STAT3 gene expression.
All cytokine secretion values were normalized to the luminescent signal relative to the measuring of the cellular ATP (CellTiter-Glo cat #G7571)).

Kupffer cells [2] = assay: NAD+ biosynthesis in Kupffer cells; type: cell-based
primary hepatocytes [3] = assay: NAD+ biosynthesis in primary hepatocytes; type: cell-based
[4] = tested on: kidney proximal tubular HK2 cells; assay: NAD+ biosynthesis in kidney proximal tubular HK2 cells; type: cell-based
primary hepatocytes [5] = assay: SIRT1 activation in primary hepatocytes; type: cell-based; conditions: 500 nM; 24 hrs after treatment
[6] = tested on: mouse primary hepatocytes; assay: SOD2 activity in mouse primary hepatocytes; type: cell-based; conditions: treatment for 24 hrs; stated as dose-dependent
primary hepatocytes [7] = assay: Gene expression / mRNA levels in primary hepatocytes; type: cell-based, mouse; conditions: for mRNA levels of mitochondrial genes TFAM, Ndufa, Uqcrc1, CytC, Atp5g1 and CS: mouse primary hepatocytes after 24 hr treatment
[8] = tested on: co-culture primary hepatocytes and Kupffer cells; assay: IL-6 secretion in co-culture of primary hepatocytes and Kupffer cells following LPS-induced inflammation; type: cell-based; conditions: LPS 50 ng/mL; stated as dose-dependent
[9] = tested on: human primary bone marrow mononuclear cells (BMMCs); assay: LPS-induced cytokine secretion in human primary bone marrow mononuclear cells (BMMCs); type: cell-based; conditions: for secretion of TNFα: BMMC cells, LPS 50 ng/mL
[10] = tested on: co-culture of primary hepatocytes and stellate cells; assay: Cytokine secretion in co-culture of primary hepatocytes and stellate cells following LPS-induced inflammation; type: cell-based; conditions: LPS 50 ng/mL; for secretion of IL-1β: 1 μM
[11] = tested on: co-culture of primary hepatocytes and stellate cells; assay: Gene expression in co-culture of primary hepatocytes and stellate cells after free fatty acid mix; type: cell-based; conditions: 5 μM; after 6 hr exposure to palmitate (0.33 mM) and oleate (0.66 mM)
rat renal NRK52E cells = assay: OPA-1 expression in rat renal NRK52E cells following Cisplatin insult; type: cell-based; conditions: via SIRT-3 activation; following Cisplatin insult (100 μM)
liver and kidneys = assay: Transcription of mitochondrial genes in liver and kidneys after administration of ACMSD inhibitors; type: in vivo
Kupffer cells [12] = assay: Gene expression (RT-PCR) in Kupffer cells; type: cell-based, mouse
Protocol: 200,000 Kupffer cells were plated out in a 24 well plate and the ACMSD inhibitor (e.g. compounds of present disclosure, compound of Formula I, Ia, Ib, and II) (5 μM) was added 1 hr before the cells were stimulated with LPS overnight 50 ng/ml (1 mg/mL stock solution in H2O, dispensed at 50 ng/mL in the well) final concentration. Cells treated with DMSO were used as control at the final concentration of 0.5% in medium. All the wells were normalized with DMSO at 0.5% final concentration. The supernatant was collected to measure cytokine secretion using a Bio-Plex Pro mouse cytokine 23-plex assay system (cat #M60009RDPD) using a Bio-Plex Instrument. The cells were washed once with PBS, and then lysed to extract total RNA for performing RT-PCR to evaluate ACMSD modulation of IL-10, SIRT1, and STAT3 gene expression.
Briefly, total RNA was extracted from the cells using the manufacturer's protocol for Qiagen RNeasy Plus Mini Kit (cat. 74134). The total RNA concentration was quantified using an Implen Instrument, and the purity was evaluated by measuring the ratio of A260/A280.
Total RNA (1 μg) was reverse transcribed using the manufacturer's protocol for SuperScript IV VILO Master Mix (ThermoFisher cat. #. 11756500). Real-time PCR was then performed in CFX 96 Real Time System (Bio-Rad) as follows: denaturation at 95° C. for 2 minutes, followed by 40 cycles at 95° C. for 10 s, and hybridization at 60° C. for 20 s. QPCR was performed using the 2× QuantiNova SYBR Green PCR Master Mix (Qiagen). Mouse β2 microglobulin (m 02M) was used as a reference gene.

HK2 primary tubule cells = assay: Gene expression in HK2 (HK-2) primary tubule cells, basal or after Cisplatin insult; type: cell-based
[13] = tested on: CLP-induced sepsis model in mice; assay: CLP-induced sepsis model in mice (ex-vivo kidney gene expression, survival); design: species or system mouse; conditions: IP 30 mg/kg/dose
Protocol: C57BL/6 mice (12-15 weeks old) (obtained from Charles River Laboratories) were anesthetized by intraperitoneal (i.p.) injection of a 1:1 solution of ketamine (75 mg/kg) and xylazine (15 mg/kg) (or pentobarbital (70 mg/kg)). The lower abdomen of the mouse was shaved and the area disinfected with a 70% alcohol swab. Under aseptic conditions, a 1 to 2 cm midline laparotomy was performed and the cecum exposed. The cecum was tightly ligated at the level of the second cecal artery with a 2.0 silk suture, perforated twice with a 22-gauge needle, and after expressing to allow for fecal matter to extrude, returned into the abdomen. The abdominal wall is then closed by planes using a running silk 4-0. Control animals underwent the same laparotomy and externalization of the cecum, but no ligation or perforation was performed. Animals were resuscitated with 1.0 mL of 0.9% normal saline, immediately after surgery via subcutaneous injection and recovered on thermal blankets under monitoring. Animals were then treated with 0.5 ml LRS (Q12 hours SQ for 3 days), ampicillin sulbactam (250 mg/kg Q12 hours IP for 3 days) and analgesic treatment (buprenorphine 0.05 mg/kg for 3 days).
ACMSD inhibitors (e.g. compounds of present disclosure, compound of Formula I, Ia, Ib, and II) were administered at two different timepoints: (a) an early phase timepoint i.e. at the time of CLP and (b) at 24 hours after CLP. […] Blood samples and target organ tissue (liver and kidney) were collected at the time of sacrificing for histology and biomarker measurements.
(§1) MATERIALS AND METHODS: Treatment with Compound I-18 in presence of LPS for 24 h has been performed to evaluate anti inflammatory properties and M1 to M2 transition. Renal tubular cells were stimulated with Compound I-18 and TGFβ for 16 hrs to evaluate the expression of genes involved in fibrosis. […] Survival percentage and liver gene modulation has been monitored in Sham groups, LPS and LPS+Compound 1-18 groups (n=8). […] Survival percentage and expression of genes involved in renal inflammation has been monitored.

HK2 cells = assay: TGF-β-induced fibrosis in HK2 (renal tubular) cells; type: cell-based
Protocol: (§2) MATERIALS AND METHODS: Treatment with Compound I-18 in presence of LPS for 24 h has been performed to evaluate anti inflammatory properties and M1 to M2 transition. Renal tubular cells were stimulated with Compound I-18 and TGFβ for 16 hrs to evaluate the expression of genes involved in fibrosis. Compound 1-18 (50 mg/kg) was dosed daily in mice treated with LPS 15 mg/kg. Survival percentage and liver gene modulation has been monitored in Sham groups, LPS and LPS+Compound 1-18 groups (n=8). 12-15 week old mice underwent CLP (50% ligation, thru-and-thru puncture with 21G needle) to evaluate CLP-induced sepsis. Compound I-18 was dosed at the concentration of 50 mg/kg for 7 days from CLP. Survival percentage and expression of genes involved in renal inflammation has been monitored.

[14] = mRNA levels of mitochondrial and oxidative stress genes (cell type not stated); type: cell-based; conditions: 100 μM
murine Kupffer cells = assay: M1/M2 polarisation of murine Kupffer cells treated with LPS; type: cell-based, mouse
Protocol: as §2

C57BL/6 mice = assay: LPS-induced systemic inflammation in mice, survival; type: in vivo, mouse; conditions: 50 mg/kg dosed daily, LPS 15 mg/kg
Protocol: Male C57/6 mice (12-15 weeks old) (obtained from Charles River Laboratories) were housed under a 12 h/12 h light/dark cycle with free access to water and standard food. The mice were divided into four groups: control, control+ACMSD inhibitor, LPS, and LPS+the ACMSD inhibitor. LPS (Sigma; 20 mg/kg/d and 1 mg/ml in 0.9% normal saline) was intraperitoneally injected, and the same volume of 0.9% normal saline alone was used as controls. A dose of 15 mg/kg IP injection of the ACMSD inhibitor (e.g. compounds of present disclosure, compound of Formula I, Ia, Ib, and II) was used which was intraperitoneally injected immediately after LPS injection. An equal volume of the solvent was injected in the control and LPS alone groups. The mice were sacrificed at 24 h after various treatments and the liver and kidneys were collected for subsequent analysis.
as §1

[15] = tested on: preclinical model of liver and kidney diseases; assay: Preclinical model of liver and kidney diseases (NASH, AKI); conditions: in vivo
[16] = 100 μM, HK-2 cells following cisplatin-insult
[17] = cell system not restated (follows HK2 TGF-β experiment)
[18] = murine Kupffer cells treated with LPS

activity of mitochondrial superoxide dismutase 2, SOD2 [6]: increases
SMILES: N#Cc1c(-c2cccs2)nc(SCc2cccc(-c3nn[nH]n3)c2)[nH]c1=O [Compound I-17]
secretion of IL-1β (Kupffer cells [1]): reduces | secretion of IL-6 (Kupffer cells [1]; incubation time 24 h): reduced | secretion of TNFα (Kupffer cells [1]): reduces | NAD+ biosynthesis (Kupffer cells [2]): restores | NAD+ biosynthesis (primary hepatocytes [3]): restores | NAD+ biosynthesis [4]: restores | SIRT1 activation (primary hepatocytes [5]): activate | mRNA levels of mitochondrial genes TFAM, Ndufa, Uqcrc1, CytC, Atp5g1 and CS (primary hepatocytes [7]): increases | expression of mitochondrial SOD2 (primary hepatocytes [7]; primary hepatocytes): increases | mRNA levels of fatty acid oxidation genes Mcad, Cpt1a, Hadha1, Hsl, Pdk4 and Sdha (primary hepatocytes [7]; primary hepatocytes after 6 hr exposure to palmitate (0.33 mM) and oleate (0.66 mM)): increases | expression of mitochondrial transcription factor A, TFAM (primary hepatocytes [7]; primary hepatocytes, via SIRT-1 activation): increasing | secretion of IL-6 [8]: reduced | secretion of TNFα [9]: reduces | secretion of IL-1β [10]: reduces | secretion of TNFα [10]: reduces | expression of IL-1β [11]: reduced | expression of TNFα [11]: reduced | expression of pro-fibrotic chemokine CTGF [11]: reduces | expression of pro-fibrotic cytokine TGF-β [11]: reduces | expression of the pro-fibrotic genes BAX, ACTA2, Col1A1, fibronectin, THBS-1 and TIMP2 [11]: reduces | expression of OPA-1 (rat renal NRK52E cells): increasing | expression of the same genes (Mcad, Cpt1a, Ndufa2, Atp5g1, Sod2) in the kidneys (liver and kidneys): unaffected | transcription of the mitochondrial genes Mcad, Cpt1a, Ndufa2, Atp5g1 and Sod2 in the liver (liver and kidneys): induces

SMILES: N#Cc1c(-c2cccs2)nc(SCc2cccc(CC(=O)O)c2)[nH]c1=O [Compound I-18]
secretion of IL-1β (Kupffer cells [1]): reduces | secretion of IL-6 (Kupffer cells [1]; incubation time 24 h): reduced | secretion of TNFα (Kupffer cells [1]): reduces | secretion of IL-6, dose dependence of the reduction (Kupffer cells [1]; incubation time 24 h): in a dose-dependent manner | expression of SIRT-1 (Kupffer cells [12]): increases | QPRT expression (Kupffer cells [12]; inflammatory conditions (LPS at 50 ng/mL), beyond basal conditions): increases | expression of IL-10 (Kupffer cells [12]; stated as dose-dependent): increases | expression of STAT3 (Kupffer cells [12]; stated as dose-dependent): increases | NAD+ biosynthesis (Kupffer cells [2]): restores | NAD+ biosynthesis (primary hepatocytes [3]): restores | NAD+ biosynthesis [4]: restores | reduction of SIRT expression induced by a Cisplatin insult (HK2 primary tubule cells; 50 μM, HK2 primary tubule cells): reverses | expression of OPA-1 (HK2 primary tubule cells; [16]): increases | expression of SOD2 (HK2 primary tubule cells; [16]): increases | expression of SIRT-3 (HK2 primary tubule cells; HK2 primary tubule cells): increases | mRNA levels of mitochondrial genes Sod1, Ndufa2, Cox2 and CytC (HK2 primary tubule cells; HK-2 cells after 24 hr treatment): increase | SIRT1 activation (primary hepatocytes [5]): activate | activity of mitochondrial superoxide dismutase 2, SOD2 [6]: increases | mRNA levels of mitochondrial genes TFAM, Ndufa, Uqcrc1, CytC, Atp5g1 and CS (primary hepatocytes [7]): increases | secretion of IL-6 [8]: reduced | secretion of LPS-induced IL-6 ([9]; 5 μM, human BMMCs): reduces | secretion of TNFα [9]: reduces | secretion of IL-1β [10]: reduces | secretion of TNFα [10]: reduces | expression of TNFα [11]: reduced | expression of pro-fibrotic chemokine CTGF [11]: reduces | expression of pro-fibrotic cytokine TGF-β [11]: reduces | expression of the pro-fibrotic genes BAX, ACTA2, Col1A1, fibronectin, THBS-1 and TIMP2 [11]: reduces | expression of IL-1β in ex-vivo kidney tissue samples [13]: reduced | expression of MCP1 in ex-vivo kidney tissue samples [13]: reduced | expression of TNFα in ex-vivo kidney tissue samples [13]: reduced | SMAD4 expression (HK2 cells; TGF-β-induced fibrosis in HK2 cells): less modulated | SMAD3 (HK2 cells; both preventive and therapeutic treatment, TGF-β-induced fibrosis in HK2 cells): dose-dependent reduction | expression of TIMP2 (HK2 cells; [17]): dose-dependent reduction | expression of fibronectin (HK2 cells; [17]): dose-dependent reduction | in vitro fibrosis in renal cells (HK2 cells; renal tubular cells stimulated with TGFβ for 16 hrs): reduced | mRNA levels of mitochondrial and oxidative stress genes CS, Ndufa2, Cox2, Atp5g1, Sod1 and Sod2 [14]: increases | expression of the same genes (Mcad, Cpt1a, Ndufa2, Atp5g1, Sod2) in the kidneys (liver and kidneys): unaffected | transcription of the mitochondrial genes Mcad, Cpt1a, Ndufa2, Atp5g1 and Sod2 in the liver (liver and kidneys): induces | polarisation of resident liver macrophages (Kupffer cells) towards an M2 phenotype (M1-to-M2 transition) (murine Kupffer cells; in vitro, M1 induced by LPS): promoting their conversion | M1 phenotype gene markers iNOS, IL-6 and TNFα (murine Kupffer cells; [18]): decrease | M2 phenotype gene markers Arginase-1, Mannose Receptor (Mrc-2) and IL-10 (murine Kupffer cells; [18]): increase | anti-inflammatory M2 Kupffer macrophages / M2 macrophage phenotype (murine Kupffer cells; [18]): promotes | pro-inflammatory M1 Kupffer macrophages (murine Kupffer cells; murine Kupffer cells treated with LPS, dose-response manner): blocks | M2 macrophage phenotype (murine Kupffer cells; two different stimuli (LPS and IL-4)): can promote | survival in LPS-induced systemic inflammation (C57BL/6 mice): promotes survival | effects in preclinical model of liver and kidney diseases, such as NASH and AKI [15]: protective effects
